Key:
BRD4(S)-BFP = target: T1, BRD4(S)-BFP (Homo sapiens, UniProt O60885); assay: Flow cytometry-based BRD4 reporter assay (DCAF11 knockout/rescue); assay type: cell-based; conditions: 6 h, 10 at 5 µM, 9 at 1 µM, dBET6 at 0.5 µM, DMSO = 1
T1 construct: BRD4 short isoform (amino acids 1-719; Twist Bioscience); V5; P2A-mCherry (mCherry split off by P2A self-cleavage) (C, cleaved yes); expressed in transfected cells; host or cells: KBM7 iCas9 cells, lentiviral SFFV-BRD4(S)-mTagBFP-P2A-mCherry
Protocol: Stable BRD4(S)-BFP reporter KBM7 iCas9 cell line was generated as previously described. […] Cells were subsequently washed, resuspended in FACS buffer and analyzed on LSRFortessa (BD Biosciences). Flow cytometry data was analyzed in FlowJo (v10.8.1). BFP and mCherry mean fluorescence intensity (MFI) values for were normalized by background subtraction of the respective values from reporter negative KBM7 wild type cells.

BRD4 = target: T2, BRD4 (Homo sapiens, UniProt O60885); assay: BRD4 levels by Western blot in Jurkat cells; assay type: cell-based; conditions: for degradation of BRD4: 3 µM, 6 h treatment
T2 construct: endogenous in cells; host or cells: Jurkat
Protocol: Cells were washed with PBS and lysed in lysis buffer (50 mM Tris-HCl, pH 7.4, 150 mM NaCl, 1% Triton X-100, 1% sodium deoxycholate, 0.1% SDS) with complete protease inhibitor cocktail (Roche, 11836170001) for 30 min on ice. For Ramos cells, cell pellets were lysed in lysis buffer (50 mM Tris-HCl, pH 8, 150 mM NaCl, 1% NP-40, 0.5% sodium deoxycholate) with complete protease inhibitor cocktail. After centrifugation at 16,000 x g, the supernatant was transferred into a new tube and the protein concentration was determined by DC protein assay (BIO-RAD, 5000116). Proteins were separated by SDS-PAGE and transferred to a PVDF membrane (Thermo scientific, 0.45 μm, 88518). For PDEδ, BRD2, GAPDH, BRD4, Vinculin and BTK, the membranes were blocked with Intercept® Blocking Buffer (LI-COR Biosciences, 927-70001) at room temperature for 1 h. The primary antibodies for these proteins were diluted with Intercept® Blocking Buffer (1:500 for PDEδ, 1:3000 for Vinculin, and 1:1000 for other proteins) and incubated with the membranes overnight at 4 °C. Membranes were washed with PBS + 0.1% Tween 20 (PBS-T) five times and incubated with secondary antibodies conjugated to IRDye® Infrared Fluorescent Dyes (1:5000, LI-COR Biosciences) at room temperature for 1 h with protection from light. After washing the membrane, signals were visualized using the ChemiDoc MP Imaging System (BIO-RAD Laboratories). For detection of LC3B, BRD3, BLK, DCAF11, DDB1 RBX1, FIP200, V5- and FLAG-Tag the membranes were blocked with 5% milk in PBS-T at room temperature for 1 h. The primary antibodies for these proteins were diluted in 5% milk in PBS-T buffer (1:200 for BRD3, 1:1000 for other proteins) and incubated with the membranes overnight at 4 °C. Membranes were washed with PBS-T five times and incubated with HRP secondary antibodies (1:1500) at room temperature for 1 h. After washing the membrane, protein detection was performed using Western blotting detection reagent (Thermo Scientific, 34095) and the ChemiDoc MP Imaging System (BIO-RAD). Relative band intensities were quantified using Image Lab (BIO-RAD).

[1] = KBM7 iCas9 BRD4(S)-BFP reporter cells, WT
[2] = reporter cells, DCAF11 KO + WT cDNA

norm BRD4 abundance (BRD4(S)-BFP; [1])	norm BRD4 abundance (BRD4(S)-BFP; [2])	norm BRD4 abundance (BRD4(S)-BFP; reporter cells, DCAF11 KO)	degradation of BRD4 (BRD4)	hook effect for BRD4 (BRD4; 6 h, up to 50 µM concentration)	Structure (SMILES)
0.4125	0.4289	0.7503	potent degradation activity	almost no hook effect	Cc1sc2c(c1C)C(c1ccc(Cl)cc1)=N[C@@H](CC(=O)NCCOCCOCCOCCOCCNC(=O)COc1c(Br)cc(/C=C3\C(=O)Nc4ccc(Br)cc43)cc1Br)c1nnc(C)n1-2 [Compound 9]
0.5147	0.5732	0.8082	potent degradation activity		Cc1sc2c(c1C)C(c1ccc(Cl)cc1)=NC(CC(=O)NCCOCCOCCOCCOc1c(Br)cc(C=C3C(=O)Nc4ccc(Br)cc43)cc1Br)c1nnc(C)n1-2 (stereo not drawn) [Compound 10]

From publication PMC10689823, “Discovery of a Drug-like, Natural Product-Inspired DCAF11 Ligand Chemotype” (Nature Communications, 2023)
